The values that follow come from ChEMBL document CHEMBL1201862, “PubChem BioAssay data set” (2004).

Calls of active or inactive are those of the source.

The target in experiment [1] is cGMP-dependent protein kinase 1 (Homo sapiens, UniProt Q13976). The experiment is classed as functional.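 Further: value from a kinome panel screen with PRKG1 as the panel member.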
Experiment [2] has as its target Serine/threonine-protein kinase PLK3 (Homo sapiens, UniProt Q9H4B4). The experiment is classed as functional.
Experiment [3] addresses 3-phosphoinositide-dependent protein kinase 1 (Homo sapiens, UniProt O15530). The experiment is classed as functional.
Experiment [4] addresses STE20-like serine/threonine-protein kinase (Homo sapiens, UniProt Q9H2G2). The experiment is classed as functional.
A further experiment concerns the target T1, Exodeoxyribonuclease V (Escherichia coli (strain K12), UniProt P04993+P07648+P08394).
T1 sequence (P04993 whole entry): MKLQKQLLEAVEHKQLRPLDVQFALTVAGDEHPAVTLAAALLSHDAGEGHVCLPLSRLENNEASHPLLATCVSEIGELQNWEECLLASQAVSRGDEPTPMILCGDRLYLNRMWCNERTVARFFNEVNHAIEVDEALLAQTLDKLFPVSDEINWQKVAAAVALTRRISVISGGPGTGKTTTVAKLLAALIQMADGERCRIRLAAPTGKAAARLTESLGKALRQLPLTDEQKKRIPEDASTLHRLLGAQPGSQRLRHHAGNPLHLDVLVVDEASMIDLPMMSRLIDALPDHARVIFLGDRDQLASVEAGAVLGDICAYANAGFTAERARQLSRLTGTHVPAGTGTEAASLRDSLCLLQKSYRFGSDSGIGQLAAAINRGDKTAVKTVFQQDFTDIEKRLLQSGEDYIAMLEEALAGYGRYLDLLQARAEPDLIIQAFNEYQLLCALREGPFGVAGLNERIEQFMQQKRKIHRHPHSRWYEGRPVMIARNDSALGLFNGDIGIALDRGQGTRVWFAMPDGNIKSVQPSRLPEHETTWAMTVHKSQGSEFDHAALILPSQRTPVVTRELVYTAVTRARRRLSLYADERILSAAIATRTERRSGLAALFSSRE
T1 sequence (P07648 whole entry): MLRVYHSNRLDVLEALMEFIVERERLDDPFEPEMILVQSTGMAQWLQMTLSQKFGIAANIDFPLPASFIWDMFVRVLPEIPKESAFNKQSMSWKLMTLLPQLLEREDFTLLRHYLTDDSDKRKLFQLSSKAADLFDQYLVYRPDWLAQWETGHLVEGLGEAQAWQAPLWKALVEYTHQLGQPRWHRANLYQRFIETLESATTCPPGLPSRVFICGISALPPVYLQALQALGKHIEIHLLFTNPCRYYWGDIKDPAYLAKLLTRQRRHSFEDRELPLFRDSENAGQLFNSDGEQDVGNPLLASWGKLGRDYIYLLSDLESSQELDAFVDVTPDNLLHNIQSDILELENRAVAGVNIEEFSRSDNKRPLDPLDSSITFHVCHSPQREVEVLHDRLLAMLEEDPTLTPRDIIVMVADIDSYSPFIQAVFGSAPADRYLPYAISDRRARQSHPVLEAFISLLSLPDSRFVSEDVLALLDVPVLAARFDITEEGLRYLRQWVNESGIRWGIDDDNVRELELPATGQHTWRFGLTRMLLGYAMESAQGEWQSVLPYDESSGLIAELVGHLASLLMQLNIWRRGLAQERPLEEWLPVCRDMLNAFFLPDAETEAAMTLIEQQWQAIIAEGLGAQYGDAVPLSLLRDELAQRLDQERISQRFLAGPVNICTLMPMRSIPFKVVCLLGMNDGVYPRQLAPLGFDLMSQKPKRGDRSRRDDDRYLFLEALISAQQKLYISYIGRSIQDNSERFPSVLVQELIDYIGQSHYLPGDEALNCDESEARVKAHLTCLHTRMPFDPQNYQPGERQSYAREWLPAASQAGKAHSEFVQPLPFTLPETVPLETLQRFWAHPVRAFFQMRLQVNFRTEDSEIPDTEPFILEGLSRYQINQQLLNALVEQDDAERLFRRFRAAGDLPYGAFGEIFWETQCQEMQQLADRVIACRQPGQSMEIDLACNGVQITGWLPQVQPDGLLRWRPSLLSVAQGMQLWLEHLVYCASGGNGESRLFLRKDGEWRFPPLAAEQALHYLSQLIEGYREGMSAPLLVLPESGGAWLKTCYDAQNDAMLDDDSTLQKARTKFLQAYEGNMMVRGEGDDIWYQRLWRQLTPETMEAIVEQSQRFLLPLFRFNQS
T1 sequence (P08394 whole entry): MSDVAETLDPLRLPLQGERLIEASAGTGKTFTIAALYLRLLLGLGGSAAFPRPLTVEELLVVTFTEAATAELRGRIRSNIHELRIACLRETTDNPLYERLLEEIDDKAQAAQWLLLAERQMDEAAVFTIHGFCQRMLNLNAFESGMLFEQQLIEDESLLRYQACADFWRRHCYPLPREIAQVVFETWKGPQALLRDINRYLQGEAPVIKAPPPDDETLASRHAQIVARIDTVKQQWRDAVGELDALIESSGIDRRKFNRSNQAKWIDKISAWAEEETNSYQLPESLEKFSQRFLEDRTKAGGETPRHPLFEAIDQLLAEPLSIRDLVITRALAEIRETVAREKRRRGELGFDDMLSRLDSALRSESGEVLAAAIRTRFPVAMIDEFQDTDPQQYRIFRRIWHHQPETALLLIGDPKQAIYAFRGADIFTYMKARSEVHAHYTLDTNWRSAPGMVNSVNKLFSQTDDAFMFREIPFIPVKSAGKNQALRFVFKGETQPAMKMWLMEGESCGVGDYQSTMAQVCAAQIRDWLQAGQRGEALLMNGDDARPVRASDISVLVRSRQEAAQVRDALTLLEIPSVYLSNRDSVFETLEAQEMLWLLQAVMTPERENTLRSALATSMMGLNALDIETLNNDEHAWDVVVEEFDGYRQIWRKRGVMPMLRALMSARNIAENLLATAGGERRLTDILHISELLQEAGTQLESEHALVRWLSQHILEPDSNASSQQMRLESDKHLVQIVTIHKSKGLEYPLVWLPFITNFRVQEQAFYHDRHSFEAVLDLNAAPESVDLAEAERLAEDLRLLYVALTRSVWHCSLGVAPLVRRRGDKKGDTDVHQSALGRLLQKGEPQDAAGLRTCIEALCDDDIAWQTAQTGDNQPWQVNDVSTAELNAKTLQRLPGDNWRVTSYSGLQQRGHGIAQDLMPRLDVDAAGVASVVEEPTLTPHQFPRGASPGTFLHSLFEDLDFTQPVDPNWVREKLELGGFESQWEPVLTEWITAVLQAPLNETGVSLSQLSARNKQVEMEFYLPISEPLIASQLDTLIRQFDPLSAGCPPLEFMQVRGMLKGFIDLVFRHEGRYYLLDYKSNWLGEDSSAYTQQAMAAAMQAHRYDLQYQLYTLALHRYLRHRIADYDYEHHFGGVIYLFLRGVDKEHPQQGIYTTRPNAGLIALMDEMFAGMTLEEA
The experiment can be described thus: E. coli RecBCD inhibitors, dose response, counter-screen for AddAB inhibitor project, absorbance, V66 E. coli, mutant T4 phage (AID 492957). The experiment is classed as functional, cell-based, Escherichia coli str. K-12 substr. MG1655. Background: A counterscreen serves to expose hits that act by an unwanted route or on another target.

Experiment [5] is described as follows: control 3'UTR Renilla luciferase suppression, dose response, counter-screen for Shn3 inhibitor project, cell-based, Clone20-Shn3RL, cherry-picked (AID 624133). The experiment is classed as functional.

Broadly, the Ki is a dissociation constant, usually derived from enzyme kinetics or from competition with a known ligand. As usually defined, the IC50 is the midpoint of a concentration-inhibition curve. Usually AC50 stands for the midpoint of the concentration-response curve, whichever way the signal moves.

STE20-like serine/threonine-protein kinase, sequence (Q9H2G2 whole entry): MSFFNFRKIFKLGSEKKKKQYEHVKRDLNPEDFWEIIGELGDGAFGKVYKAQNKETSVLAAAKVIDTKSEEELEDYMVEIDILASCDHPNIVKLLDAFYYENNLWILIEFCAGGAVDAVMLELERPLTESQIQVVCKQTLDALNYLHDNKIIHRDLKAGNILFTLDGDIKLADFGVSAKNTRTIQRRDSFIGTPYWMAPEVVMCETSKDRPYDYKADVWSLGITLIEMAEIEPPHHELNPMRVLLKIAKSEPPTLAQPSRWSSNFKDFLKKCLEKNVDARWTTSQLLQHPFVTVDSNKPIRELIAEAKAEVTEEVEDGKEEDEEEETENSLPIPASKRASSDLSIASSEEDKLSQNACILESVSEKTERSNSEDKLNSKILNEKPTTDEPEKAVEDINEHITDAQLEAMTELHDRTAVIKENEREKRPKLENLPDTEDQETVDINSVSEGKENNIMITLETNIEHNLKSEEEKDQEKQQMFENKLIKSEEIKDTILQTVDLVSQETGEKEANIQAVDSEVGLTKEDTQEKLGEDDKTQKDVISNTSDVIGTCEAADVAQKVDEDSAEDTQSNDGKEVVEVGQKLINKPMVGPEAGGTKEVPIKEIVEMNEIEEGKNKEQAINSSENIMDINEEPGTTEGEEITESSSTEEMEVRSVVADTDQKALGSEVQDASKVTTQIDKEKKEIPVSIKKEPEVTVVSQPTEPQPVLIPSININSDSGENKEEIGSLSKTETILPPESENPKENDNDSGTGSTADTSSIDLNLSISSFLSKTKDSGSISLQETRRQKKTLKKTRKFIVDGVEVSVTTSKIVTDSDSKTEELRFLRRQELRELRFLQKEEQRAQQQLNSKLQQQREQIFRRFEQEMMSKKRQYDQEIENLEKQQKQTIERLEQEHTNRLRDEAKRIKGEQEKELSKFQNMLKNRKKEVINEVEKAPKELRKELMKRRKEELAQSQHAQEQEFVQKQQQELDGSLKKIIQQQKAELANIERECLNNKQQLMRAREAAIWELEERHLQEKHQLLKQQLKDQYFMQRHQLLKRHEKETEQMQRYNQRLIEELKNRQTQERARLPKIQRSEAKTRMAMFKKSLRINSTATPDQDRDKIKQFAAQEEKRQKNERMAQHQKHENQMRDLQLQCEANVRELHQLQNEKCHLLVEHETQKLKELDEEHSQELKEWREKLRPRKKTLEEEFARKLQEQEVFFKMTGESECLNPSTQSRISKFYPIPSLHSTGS
Serine/threonine-protein kinase PLK3, sequence (Q9H4B4 whole entry): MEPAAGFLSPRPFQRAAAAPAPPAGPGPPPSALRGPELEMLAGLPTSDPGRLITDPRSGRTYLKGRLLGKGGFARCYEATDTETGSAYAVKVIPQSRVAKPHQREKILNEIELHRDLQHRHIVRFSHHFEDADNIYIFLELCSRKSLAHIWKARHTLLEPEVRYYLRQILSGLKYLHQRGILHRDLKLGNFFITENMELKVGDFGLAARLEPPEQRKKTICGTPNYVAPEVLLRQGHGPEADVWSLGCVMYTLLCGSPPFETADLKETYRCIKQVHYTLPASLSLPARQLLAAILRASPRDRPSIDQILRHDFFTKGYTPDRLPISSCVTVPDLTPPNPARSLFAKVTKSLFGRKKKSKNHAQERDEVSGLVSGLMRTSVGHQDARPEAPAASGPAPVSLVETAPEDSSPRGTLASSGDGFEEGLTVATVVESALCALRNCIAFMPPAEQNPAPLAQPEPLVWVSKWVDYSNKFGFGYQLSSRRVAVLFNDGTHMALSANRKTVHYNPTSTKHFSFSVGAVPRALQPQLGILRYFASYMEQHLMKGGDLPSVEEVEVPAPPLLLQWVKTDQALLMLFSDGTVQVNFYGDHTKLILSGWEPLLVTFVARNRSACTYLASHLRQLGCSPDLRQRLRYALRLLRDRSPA
cGMP-dependent protein kinase 1, sequence (Q13976 whole entry): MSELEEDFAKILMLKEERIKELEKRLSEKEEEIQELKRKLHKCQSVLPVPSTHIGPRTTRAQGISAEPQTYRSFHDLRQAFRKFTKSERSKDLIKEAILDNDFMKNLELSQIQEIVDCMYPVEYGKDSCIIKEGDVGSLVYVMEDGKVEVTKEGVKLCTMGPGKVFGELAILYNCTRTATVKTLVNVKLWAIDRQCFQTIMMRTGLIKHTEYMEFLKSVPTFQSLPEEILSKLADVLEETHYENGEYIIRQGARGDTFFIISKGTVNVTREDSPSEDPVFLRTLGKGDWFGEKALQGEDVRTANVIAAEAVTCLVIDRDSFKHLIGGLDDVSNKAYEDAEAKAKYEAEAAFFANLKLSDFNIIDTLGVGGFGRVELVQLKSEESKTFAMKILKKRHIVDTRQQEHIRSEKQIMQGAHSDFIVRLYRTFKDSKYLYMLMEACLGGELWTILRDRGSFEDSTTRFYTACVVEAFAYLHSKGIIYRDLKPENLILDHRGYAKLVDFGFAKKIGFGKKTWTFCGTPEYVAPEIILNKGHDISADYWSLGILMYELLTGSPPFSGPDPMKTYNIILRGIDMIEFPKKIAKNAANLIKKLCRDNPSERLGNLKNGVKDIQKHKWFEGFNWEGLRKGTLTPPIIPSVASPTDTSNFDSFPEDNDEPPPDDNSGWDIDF
3-phosphoinositide-dependent protein kinase 1, sequence (O15530 whole entry): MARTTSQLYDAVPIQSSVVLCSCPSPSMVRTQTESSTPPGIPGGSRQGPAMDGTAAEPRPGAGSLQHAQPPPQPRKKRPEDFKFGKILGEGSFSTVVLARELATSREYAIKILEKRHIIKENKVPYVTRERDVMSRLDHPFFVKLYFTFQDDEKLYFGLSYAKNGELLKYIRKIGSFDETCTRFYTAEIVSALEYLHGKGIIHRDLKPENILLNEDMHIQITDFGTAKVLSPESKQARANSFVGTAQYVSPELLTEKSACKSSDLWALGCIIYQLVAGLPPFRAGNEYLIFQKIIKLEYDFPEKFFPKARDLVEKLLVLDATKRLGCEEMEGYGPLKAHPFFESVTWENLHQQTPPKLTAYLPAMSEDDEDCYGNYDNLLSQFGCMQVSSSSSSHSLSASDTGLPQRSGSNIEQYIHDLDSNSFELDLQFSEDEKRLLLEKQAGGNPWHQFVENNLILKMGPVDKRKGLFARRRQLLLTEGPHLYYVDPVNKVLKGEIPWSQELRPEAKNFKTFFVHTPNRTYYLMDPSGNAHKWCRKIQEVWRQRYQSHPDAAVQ

For `CS(=O)(=O)N(Cc1ccc2[nH]c(=O)c3cccn3c2c1)C1CC1`, the Ki in experiment [1] is 251 nM (active); in experiment [2], 15.8 nM (active); in experiment [3], 79.4 nM (active); in experiment [4] it was > 10 µM (inactive).
On to `Cc1cc(NC(c2ccc(Cl)cc2)c2ccc3cccnc3c2O)no1` (stereo unspecified), for which the IC50 on Exodeoxyribonuclease V is > 119 µM (inactive). In addition, in experiment [5], the AC50 is 677 nM (active).
